Source: patent publication US11535599B2, “Benzisoxazole derivative” (Sumitomo Pharma Co., Ltd., priority 2020, dated 2022)
Like-named read-outs stand apart in the source and are kept apart here.

Experiments:
human Cav3.1 = human Cav3.1 (Homo sapiens (Human), UniProt O43497); experiment: T-type calcium channel inhibitory activity, whole-cell patch-clamp with HEK293 cell; assay type: cell-based; conditions: for inhibition at 600 µM: HEK293, 600 μmol/L, read-out: Cav3.1 % inhibitory rate; for IC50: dose-reactive test, read-out: Cav3.1 IC50 (parenthesized)
Procedure: (§1) The inhibitory activity of the present compounds for T-type calcium channel was measured by whole-cell patch-clamp method with HEK293 cell (vendor of HEK 293 cell: ATCC, Manassas, Va., USA, builder of expressing cell: ChanTest Corporation., Cleveland, Ohio, USA), in which human Cav3.1, human Cav3.2, or human Cav3.3 is expressed. The culture medium used for HEK293 cell was prepared by adding fetal bovine serum (10%), sodium penicillin G (100 U/mL), streptomycin sulfate (100 μg/mL), and G418 (500 μg/mL) to a mixture medium of Dulbecco's modified Eagle's medium/Ham's F-12 medium. The whole-cell current was evaluated with IonWorks Barracuda system and Population Patch Clamp (both are provided by Molecular Device Corporation, Union City, Calif., USA). The extracellular recording solution used during the recording was Hanks' balanced salt solution. The internal recording solution used herein was 50 mmol/L CsCl, 90 mmol/L CsF, 5 mmol/L MgCl2, 1 mmol/L glycol ether diamine tetraacetic acid (EGTA), and 10 mmol/L 4-(2-hydroxyethyl)piperazine-1-ethanesulfonic acid (HEPES (pH 7.2). The holding voltage was held at −90 mV, then changed to −65 mV. 60 seconds later, −20 mV pulse was added thereto for 200 millisecond to activate the channel on plasma membrane and generate calcium current. The calcium current was recorded with an amplifier of IonWorks Barracuda system, and analyzed with a program of the system (Version 2.0.2). The record of the calcium current was obtained twice, before and after the addition of the compound. In the measurement after adding the compound, the cells were exposed to the recording solution containing the compound for more than 5 minutes and then the current was measured. In the analyses, the ratio of current readout after the compound addition per current readout before the compound addition was calculated, the calculated value was subtracted from one, and the obtained value was converted to percentage. […] The value obtained from each compound was canonicalized based on the two ends of values to obtain each inhibitory rate. The positive control compound used herein was TTA-A2 which is known as T-type calcium channel inhibitor. IC50 value was calculated with Hill equation.
(§2) Each inhibitory rate (%) against T-type calcium channel at the evaluation concentration of the present compound (600 μmol/L) is shown in Table 12, in which the parenthesized values are IC50 values (μmol/L)) calculated from the dose-reactive test.

human Cav3.2 = human Cav3.2 (Homo sapiens (Human), UniProt O95180); experiment: as above; assay type: cell-based; conditions: for inhibition at 600 µM: HEK293, 600 μmol/L, read-out: Cav3.2 % inhibitory rate; for IC50: dose-reactive test, read-out: Cav3.2 IC50 (parenthesized)
Procedure: as §1, §2

human Cav3.3 = human Cav3.3 (Homo sapiens (Human), UniProt Q9P0X4); experiment: as above; assay type: cell-based; conditions: for inhibition at 600 µM: HEK293, 600 μmol/L, read-out: Cav3.3 % inhibitory rate; for IC50: dose-reactive test, read-out: Cav3.3 IC50 (parenthesized)
Procedure: as §1, §2

[1] = system: reserpine-induced Parkinson's disease model mouse; experiment: Potentiating effect of levodopa-induced hyperactivity in reserpine-induced Parkinson's disease model mouse; assay type: in vivo; conditions: Examples 12.5 or 25 mg/kg oral; rasagiline 3 or 10 mg/kg; with levodopa 200 mg/kg i.p.
Procedure: Dopamine-depleted mice due to reserpine treatment are model mice of akinesia symptoms in Parkinson's disease, said symptoms are relieved with levodopa (L-DOPA). The effect of the present compounds for potentiating the levodopa's effect was tested.
In the present test, male Crl: CD1 (ICR) mice (CHARLES RIVER LABORATORIES JAPAN, INC.) were used. 20-24 hours before starting the movement measurement, reserpine (3 mg/kg) was intraperitoneally administered to the mouse. One hour before starting the movement measurement, the present compound (12-.5 mg/kg or 25 mg/kg of. Examples 1, 2, 3, 4, and 5) was orally administered to the mouse. Shortly before starting the movement measurement, levodopa (200 mg/kg) with benserazide whose amount was ¼ of levodopa in free form was intraperitoneally administered to the mouse. The movement measurement was carried out for 90 minutes, and each total movement was compared.

[2] = system: unilateral lesion model of nigrostriatal dopamine neuron induced with 6-OHDA; experiment: Extending duration of levodopa-induced rotational behavior in 6-OHDA unilateral lesion model; assay type: in vivo, rat; conditions: Examples 10 or 30 mg/kg oral; rasagiline 0.6 mg/kg; with levodopa 5 mg/kg i.p.
Rat striatum MAOB = Rat striatum MAOB (Rattus norvegicus (Rat), UniProt P19643); experiment: Activity for inhibiting monoamine oxidase B (MAOB); assay type: biochemical
Procedure: MAOB is an enzyme involved in oxidative de-amino acid reaction of an endogenous monoamine neurotransmitter such as dopamine. […] The effect of the present compounds for inhibiting MAOB in rat striatum and simian striatum was tested.
Mitochondria⋅synaptosome fraction containing MAOB was prepared according to the following procedure. To striata of male Slc: Wistar rat (Japan SLC, Inc.) or male cynomolgus monkey (HAMRI CO., LTD.) was added 0.32 mol/L aqueous sucrose by 10 mL per 1 gram as wet weight of the tissue, and the mixture was homogenized. The homogenate was centrifuged at 4° C. at 1,000 g for 10 minutes, and the obtained supernatant was centrifuged again at 4° C. at 17,200 g for 20 minutes. To the obtained precipitate was added a prepared buffer solution (10 mmol/L Tris-HCl buffer solution (pH 7.4), 0.25 mol/L aqueous sucrose, 0.5 mmol/L EDTA-2K) by 10 mL per 1 gram as wet weight of the original tissue, and the mixture was centrifuged again at 4° C. at 17,200 g for 20 minutes. To the obtained precipitate was added the prepared buffer solution by 40 mL per 1 gram as wet weight of the original tissue. The mixture was suspended to be used as an enzyme homogenate solution.
As a substance to be degraded by MAOB, ^14C-labeled β-phenylethylamine ([^14C] β-PEA) was used. [^14C] β-PEA and the present compound solution diluted to each concentration were incubated with the enzyme homogenate solution at 37° C. for a given period, and then the reaction was stopped by adding 3 mol/L cold HCl thereto. The reaction product was extracted with a mixture of water-saturated toluene and ethyl acetate (1:1). The supernatant organic layer was separated, a liquid scintillation cocktail (ACSII, GE Healthcare) was added to the separated organic layer, and the radioactivity was measured with a liquid scintillation counter (TRI-CARB 3100TR, Packard). The IC50 value of each compound was determined based on two parameter logistic model with the inhibitory data of each concentration, said data were obtained from plural trials.

human CA-II = human CA-II (Homo sapiens (Human), UniProt P00918); experiment: Activity for inhibiting carbonic anhydrase (CA); assay type: biochemical; conditions: 4-nitrophenyl acetate substrate
Procedure: CA is a zinc metalloenzyme family which catalyzes reversible hydration between carbon dioxide, and bicarbonate and proton.
As a substance for decomposition by CA-II, 4-nitrophenyl acetate was used herein. 4-Nitrophenyl acetate is […] with CA-II to produce 4-nitrophenol. […] To the diluted solution were added […] (final concentration: 5 mmol/L) and the present compound of each concentration, and the mixture was incubated at 37° C. under shading for 30 minutes. […] The IC50 of the compound was obtained through the two-parameter logistic model with the inhibitory rate data in each concentration which was obtained from plural trials.

[3] = [14C] β-PEA substrate, read-out: Rat striatum MAOB IC50

Chain of human Cav3.2 (O95180 whole entry): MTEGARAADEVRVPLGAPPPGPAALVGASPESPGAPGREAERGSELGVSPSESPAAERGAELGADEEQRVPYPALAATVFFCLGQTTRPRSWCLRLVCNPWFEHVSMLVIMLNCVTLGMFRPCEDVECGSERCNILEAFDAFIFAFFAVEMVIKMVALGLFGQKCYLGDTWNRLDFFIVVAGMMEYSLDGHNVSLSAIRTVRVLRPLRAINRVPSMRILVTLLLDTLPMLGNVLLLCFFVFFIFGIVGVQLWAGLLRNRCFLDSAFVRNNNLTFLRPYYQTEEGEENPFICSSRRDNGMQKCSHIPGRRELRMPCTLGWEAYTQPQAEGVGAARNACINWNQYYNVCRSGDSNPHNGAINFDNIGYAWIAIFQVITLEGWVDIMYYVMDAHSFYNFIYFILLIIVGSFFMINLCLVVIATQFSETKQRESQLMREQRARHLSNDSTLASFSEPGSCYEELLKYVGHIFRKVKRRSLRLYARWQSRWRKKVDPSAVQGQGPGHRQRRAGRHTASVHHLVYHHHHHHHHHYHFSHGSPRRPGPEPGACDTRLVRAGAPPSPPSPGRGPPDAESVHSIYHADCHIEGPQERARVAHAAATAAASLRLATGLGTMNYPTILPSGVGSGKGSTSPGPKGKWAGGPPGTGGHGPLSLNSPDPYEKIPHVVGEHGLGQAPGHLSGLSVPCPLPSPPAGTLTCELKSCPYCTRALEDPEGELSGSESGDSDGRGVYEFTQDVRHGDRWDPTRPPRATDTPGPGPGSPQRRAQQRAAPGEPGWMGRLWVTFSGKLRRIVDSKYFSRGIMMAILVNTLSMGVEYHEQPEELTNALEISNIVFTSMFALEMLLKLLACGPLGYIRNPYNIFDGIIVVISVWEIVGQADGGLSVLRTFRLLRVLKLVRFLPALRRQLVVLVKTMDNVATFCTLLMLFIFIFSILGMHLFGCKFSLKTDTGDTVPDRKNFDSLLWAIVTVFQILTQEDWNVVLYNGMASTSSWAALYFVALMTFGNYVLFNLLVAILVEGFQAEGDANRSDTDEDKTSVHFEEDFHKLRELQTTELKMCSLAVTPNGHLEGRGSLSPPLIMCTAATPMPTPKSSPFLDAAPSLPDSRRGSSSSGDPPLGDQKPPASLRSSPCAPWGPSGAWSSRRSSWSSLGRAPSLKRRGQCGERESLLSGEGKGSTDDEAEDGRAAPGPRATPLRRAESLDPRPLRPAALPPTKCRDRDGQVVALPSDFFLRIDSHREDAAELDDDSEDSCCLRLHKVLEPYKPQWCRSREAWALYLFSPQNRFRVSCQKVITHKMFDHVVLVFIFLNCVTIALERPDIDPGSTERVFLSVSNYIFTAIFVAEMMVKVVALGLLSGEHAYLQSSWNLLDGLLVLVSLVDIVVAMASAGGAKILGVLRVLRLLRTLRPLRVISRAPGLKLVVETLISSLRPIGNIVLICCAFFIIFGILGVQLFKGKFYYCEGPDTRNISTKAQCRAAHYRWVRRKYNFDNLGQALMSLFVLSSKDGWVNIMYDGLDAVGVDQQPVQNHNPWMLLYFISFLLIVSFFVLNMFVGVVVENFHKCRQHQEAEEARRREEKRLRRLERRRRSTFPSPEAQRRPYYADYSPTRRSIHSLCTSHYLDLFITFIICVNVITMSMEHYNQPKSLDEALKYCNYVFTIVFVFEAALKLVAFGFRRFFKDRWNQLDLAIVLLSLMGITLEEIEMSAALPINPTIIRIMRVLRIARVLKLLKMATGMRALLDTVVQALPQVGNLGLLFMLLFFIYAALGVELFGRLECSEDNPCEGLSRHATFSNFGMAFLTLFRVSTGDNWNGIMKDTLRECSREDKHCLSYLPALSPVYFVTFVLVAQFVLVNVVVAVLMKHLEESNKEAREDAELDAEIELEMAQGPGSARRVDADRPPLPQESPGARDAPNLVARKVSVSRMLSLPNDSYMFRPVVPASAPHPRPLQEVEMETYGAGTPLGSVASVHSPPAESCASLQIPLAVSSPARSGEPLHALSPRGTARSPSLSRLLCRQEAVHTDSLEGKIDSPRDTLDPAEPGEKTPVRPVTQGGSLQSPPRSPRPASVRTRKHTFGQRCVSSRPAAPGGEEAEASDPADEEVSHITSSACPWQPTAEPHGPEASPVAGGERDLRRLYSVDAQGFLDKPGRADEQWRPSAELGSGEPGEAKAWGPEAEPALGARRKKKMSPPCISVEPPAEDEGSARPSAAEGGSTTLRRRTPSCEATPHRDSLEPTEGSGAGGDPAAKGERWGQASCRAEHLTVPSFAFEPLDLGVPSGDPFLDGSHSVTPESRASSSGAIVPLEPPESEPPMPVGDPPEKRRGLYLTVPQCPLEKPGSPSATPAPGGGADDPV
Chain of human Cav3.1 (O43497 whole entry): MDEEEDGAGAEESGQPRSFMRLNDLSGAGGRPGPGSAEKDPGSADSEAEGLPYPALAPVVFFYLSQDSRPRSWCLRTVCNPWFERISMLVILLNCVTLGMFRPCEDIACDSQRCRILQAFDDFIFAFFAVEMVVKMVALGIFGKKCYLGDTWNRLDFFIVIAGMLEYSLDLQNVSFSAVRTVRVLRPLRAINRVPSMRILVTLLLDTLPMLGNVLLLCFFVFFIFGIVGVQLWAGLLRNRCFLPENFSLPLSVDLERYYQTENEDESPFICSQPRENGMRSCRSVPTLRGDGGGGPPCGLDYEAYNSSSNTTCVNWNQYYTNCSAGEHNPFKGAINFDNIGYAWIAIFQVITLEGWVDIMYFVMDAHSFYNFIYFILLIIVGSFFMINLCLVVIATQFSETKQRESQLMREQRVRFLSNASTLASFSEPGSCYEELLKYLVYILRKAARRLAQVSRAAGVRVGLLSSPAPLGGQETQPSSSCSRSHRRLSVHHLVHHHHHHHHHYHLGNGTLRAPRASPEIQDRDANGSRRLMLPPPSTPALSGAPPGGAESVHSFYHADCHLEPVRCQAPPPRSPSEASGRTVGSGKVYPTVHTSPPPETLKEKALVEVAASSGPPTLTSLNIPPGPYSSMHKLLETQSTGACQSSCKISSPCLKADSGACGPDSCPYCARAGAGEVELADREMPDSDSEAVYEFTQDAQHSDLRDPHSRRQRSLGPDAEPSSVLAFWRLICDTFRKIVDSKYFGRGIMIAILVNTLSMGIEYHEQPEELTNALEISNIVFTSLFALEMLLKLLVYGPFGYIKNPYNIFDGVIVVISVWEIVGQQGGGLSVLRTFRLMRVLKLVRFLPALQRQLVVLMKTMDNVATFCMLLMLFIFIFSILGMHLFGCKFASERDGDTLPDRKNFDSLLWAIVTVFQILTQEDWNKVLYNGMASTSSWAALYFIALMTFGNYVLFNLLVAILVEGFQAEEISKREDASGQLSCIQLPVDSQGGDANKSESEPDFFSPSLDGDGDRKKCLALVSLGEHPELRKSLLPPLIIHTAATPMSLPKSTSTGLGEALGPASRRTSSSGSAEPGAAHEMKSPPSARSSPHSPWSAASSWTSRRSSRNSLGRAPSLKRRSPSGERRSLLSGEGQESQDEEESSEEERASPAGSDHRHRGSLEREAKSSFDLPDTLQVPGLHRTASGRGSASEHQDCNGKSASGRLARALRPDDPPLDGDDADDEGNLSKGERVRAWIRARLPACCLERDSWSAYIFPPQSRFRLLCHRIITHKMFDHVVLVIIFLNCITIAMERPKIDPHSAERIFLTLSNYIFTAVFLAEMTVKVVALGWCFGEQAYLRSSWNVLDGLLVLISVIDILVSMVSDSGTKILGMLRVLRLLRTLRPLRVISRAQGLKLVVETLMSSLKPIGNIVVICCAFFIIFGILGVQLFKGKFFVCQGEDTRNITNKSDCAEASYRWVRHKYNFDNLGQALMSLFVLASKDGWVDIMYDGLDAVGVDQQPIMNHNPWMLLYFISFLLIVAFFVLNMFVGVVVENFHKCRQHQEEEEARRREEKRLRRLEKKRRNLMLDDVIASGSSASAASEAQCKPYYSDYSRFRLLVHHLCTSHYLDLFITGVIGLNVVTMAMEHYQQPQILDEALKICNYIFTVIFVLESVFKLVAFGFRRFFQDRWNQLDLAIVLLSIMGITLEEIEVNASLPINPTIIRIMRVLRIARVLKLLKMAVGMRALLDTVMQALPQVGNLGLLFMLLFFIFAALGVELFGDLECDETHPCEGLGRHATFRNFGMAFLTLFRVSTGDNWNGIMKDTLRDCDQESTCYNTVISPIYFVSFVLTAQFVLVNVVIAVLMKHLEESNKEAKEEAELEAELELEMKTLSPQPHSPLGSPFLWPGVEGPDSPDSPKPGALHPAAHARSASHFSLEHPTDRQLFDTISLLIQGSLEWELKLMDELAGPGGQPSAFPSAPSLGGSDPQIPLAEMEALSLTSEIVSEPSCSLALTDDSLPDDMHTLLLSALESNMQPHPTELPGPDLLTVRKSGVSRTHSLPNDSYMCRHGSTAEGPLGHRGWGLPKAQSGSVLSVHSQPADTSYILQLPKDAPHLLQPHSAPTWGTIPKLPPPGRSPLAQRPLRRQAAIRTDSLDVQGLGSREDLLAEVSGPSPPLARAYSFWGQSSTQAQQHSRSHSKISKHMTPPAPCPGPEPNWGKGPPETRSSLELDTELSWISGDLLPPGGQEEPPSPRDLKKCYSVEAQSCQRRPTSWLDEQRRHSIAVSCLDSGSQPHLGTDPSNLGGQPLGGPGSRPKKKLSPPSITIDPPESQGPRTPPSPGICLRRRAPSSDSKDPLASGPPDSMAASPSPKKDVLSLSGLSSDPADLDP

| SMILES | inhibition at 600 µM (human Cav3.1) [%] | inhibition at 600 µM (human Cav3.2) [%] | inhibition at 600 µM (human Cav3.3) [%] | levodopa-induced hyperactivity (total movement, 90 minutes) [1] | rotational number in the late phase (100-120 minutes) [2] | IC50 (Rat striatum MAOB; [3]) [µM] | IC50 (human CA-II) [µM] | IC50 (human Cav3.1) [µM] | IC50 (human Cav3.2) [µM] | IC50 (human Cav3.3) [µM] | IC50 (Rat striatum MAOB; Rat striatum MAOB IC50, [14C] β-PEA substrate) [µM] | MAOB inhibitory action (Rat striatum MAOB; rat striatum, in words) |
| --- | --- | --- | --- | --- | --- | --- | --- | --- | --- | --- | --- | --- |
| CC(C)(c1noc2ccccc12)S(N)(=O)=O [Example 2, 2-(1,2-benzoxazol-3-yl)propane-2-sulfonamide] | 72.7 | 64 | 70 | significantly-potentiating effect of levodopa-induced hyperactivity | significantly increased the rotational number in the late phase | > 600 | 79.2 |  |  |  |  |  |
| NS(=O)(=O)C(F)c1noc2ccccc12 (stereo not drawn) [Example 3, 1-(1,2-benzoxazol-3-yl)-1-fluoromethane-sulfonamide] | 69.9 | 64 | 61 | significantly-potentiating effect of levodopa-induced hyperactivity | did not show statistically-significant increase, but showed a tendency to increase the rotational number in the late phase | 101 | 0.084 | 325 | 362 | 440 |  |  |
| NS(=O)(=O)C(F)(F)c1noc2ccccc12 [Example 4, 1-(1,2-benzoxazol-3-yl)-1,1-difluoromethane-sulfonamide] |  |  |  | significantly-potentiating effect of levodopa-induced hyperactivity |  | 389 | 0.023 |  |  |  |  |  |
| CCC(c1noc2ccccc12)S(N)(=O)=O (stereo not drawn) [Example 6, 1-(1,2-benzoxazol-3-yl)propane-1-sulfonamide] | 80.4 | 67.4 | 72.9 |  |  | > 600 | 45.7 |  |  |  |  |  |
| CCCC(c1noc2ccccc12)S(N)(=O)=O (stereo not drawn) [Example 7, 1-(1,2-benzoxazol-3-yl)butane-1-sulfonamide] |  |  |  |  |  | > 600 | 32.9 |  |  |  |  |  |
| CC(F)(c1noc2ccccc12)S(N)(=O)=O (stereo not drawn) [Example 8, 1-(1,2-benzoxazol-3-yl)-1-fluoroethane-1-sulfonamide] | 83.1 | 70.3 | 73 |  | did not show statistically-significant increase, but showed a tendency to increase the rotational number in the late phase | > 600 | 2.2 | 216 | 318 | 321 |  |  |
| CC(C)C(c1noc2ccccc12)S(N)(=O)=O (stereo not drawn) [Example 9, 1-(1,2-benzoxazol-3-yl)-2-methylpropane-1-sulfonamide] | 96.5 | 96.9 | 94.3 |  |  |  |  |  |  |  |  |  |
| COc1ccc2onc(C(C)S(N)(=O)=O)c2c1 (stereo not drawn) [Example 10, 1-(5-methoxy-1,2-benzoxazol-3-yl)ethane-1-sulfonamide] | 68.5 | 57.7 | 69.7 |  |  | > 600 |  |  |  |  |  |  |
| CC(c1noc2ccc(F)cc12)S(N)(=O)=O (stereo not drawn) [Example 11, 1-(5-fluoro-1,2-benzoxazol-3-yl)ethane-1-sulfonamide] | 56 | 50.8 | 54.3 |  |  | > 600 |  |  |  |  |  |  |
| CC(c1noc2ccc(Cl)cc12)S(N)(=O)=O (stereo not drawn) [Example 12, 1-(5-chloro-1,2-benzoxazol-3-yl)ethane-1-sulfonamide] | 95 | 91.5 | 93 |  |  | 150 |  |  |  |  |  |  |
| C[C@H](NCc1ccc(OCc2cccc(F)c2)cc1)C(N)=O [safinamide, reference compound] |  |  |  |  | did not show statistically-significant increase, but showed a tendency to increase the rotational number in the late phase |  |  |  |  |  | 0.193 | strong MAOB inhibitory action |
